Columns and labels:
[1] = molecular target: T1, wt human TYK2, catalytic site (Homo sapiens, UniProt P29597); test: HTRF KinEASE assay, TYK2; assay type: biochemical; conditions: 1 μM ATP; read-out: IC50, Activity Toward TYK2
T1 construct: wt human TYK2, catalytic site; purchased SignalChem
T1 sequence (P29597 897-1176 limits assumed): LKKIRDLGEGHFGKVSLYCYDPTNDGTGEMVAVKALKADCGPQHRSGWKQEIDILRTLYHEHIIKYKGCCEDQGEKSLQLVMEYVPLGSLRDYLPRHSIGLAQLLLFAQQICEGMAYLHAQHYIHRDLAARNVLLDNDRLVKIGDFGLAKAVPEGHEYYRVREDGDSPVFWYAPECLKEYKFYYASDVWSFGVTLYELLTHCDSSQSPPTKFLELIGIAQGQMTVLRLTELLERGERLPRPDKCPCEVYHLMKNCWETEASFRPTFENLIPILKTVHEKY
Outline: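 Kinase reaction run at room temperature for at least 30 min: 2 nM TYK2 with 1 μM ATP, or 1 nM JAK2 with 100 μM ATP, each with 1 μM biotin-TK substrate. Phosphorylation detected by HTRF (60 min antibody/XL665) and evaluated from emission ratios.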

[2] = molecular target: T2, wt human LRRK2, catalytic site (Homo sapiens, UniProt Q5S007); test: TR-FRET LanthaScreen Eu Kinase Binding Assay, LRRK2 wt; conditions: one range stated for wt and G2019, read-out: IC50, Activity Toward LRRK2(Wt)
T2 construct: 5 nM wt human LRRK2, catalytic site; purchased ThermoFisher
Experimental: (§1) The basic protocol for TR-FRET LanthaScreen Eu Kinase Binding Assay inhibitor studies were performed as follows. LanthaScreen Kinase Binding Assays (ThermoFisher/USA) to evaluate inhibitors were performed by addition of 5 μL of test compound in corresponding DMSO dilutions/5 μl of kinase/antibody mixture, 5 μL of tracer into 384 well small volume plates. After incubation for 1 hour at room temperature, plates were read. Data analysis of emission ratios was according LanthaScreen Eu Kinase Binding Assay protocol.
(§2) Kinase and assay components were adjusted to final concentrations according to kit protocol. For LRRK2: 5 nM wt human LRRK2, catalytic site, or G2019S human LRRK2, catalytic site (ThermoFisher/USA), 2 nM Eu-Anti-GST Antibody, 10 nM Kinase Tracer 236 in 1× Kinase Buffer A. For NUAK1: 8 nM wt human NUAK1, full length (ThermoFisher/USA), 2 nM Eu-Anti-His Antibody, 5 nM Kinase Tracer 236 in 1× Kinase Buffer A.

[3] = molecular target: T3, G2019S human LRRK2, catalytic site (Homo sapiens, UniProt Q5S007, G2019S); test: TR-FRET LanthaScreen Eu Kinase Binding Assay, LRRK2 G2019S; conditions: LRRK2(G2019); one range stated for wt and G2019; read-out: IC50, Activity Toward LRRK2(G2019)
T3 construct: G2019S human LRRK2, catalytic site; purchased ThermoFisher
Experimental: as §1, §2

[4] = molecular target: T4, wt human JAK1, catalytic site (Homo sapiens, UniProt P23458); test: HTRF KinEASE assay, JAK1; assay type: biochemical; conditions: 2.5 μM ATP; read-out: IC50, Activity Toward JAK1
T4 construct: wt human JAK1, catalytic site; purchased ThermoFisher
Outline: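 Compounds in DMSO dilution were mixed with kinase, biotin-TK substrate and ATP and reacted for ≥30 min at room temperature. Detection reagents (antibody, streptavidin-XL665) were read 60 min later as HTRF, with emission ratios analysed per KinEASE protocol.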

T2 sequence (Q5S007 970-2527 limits assumed): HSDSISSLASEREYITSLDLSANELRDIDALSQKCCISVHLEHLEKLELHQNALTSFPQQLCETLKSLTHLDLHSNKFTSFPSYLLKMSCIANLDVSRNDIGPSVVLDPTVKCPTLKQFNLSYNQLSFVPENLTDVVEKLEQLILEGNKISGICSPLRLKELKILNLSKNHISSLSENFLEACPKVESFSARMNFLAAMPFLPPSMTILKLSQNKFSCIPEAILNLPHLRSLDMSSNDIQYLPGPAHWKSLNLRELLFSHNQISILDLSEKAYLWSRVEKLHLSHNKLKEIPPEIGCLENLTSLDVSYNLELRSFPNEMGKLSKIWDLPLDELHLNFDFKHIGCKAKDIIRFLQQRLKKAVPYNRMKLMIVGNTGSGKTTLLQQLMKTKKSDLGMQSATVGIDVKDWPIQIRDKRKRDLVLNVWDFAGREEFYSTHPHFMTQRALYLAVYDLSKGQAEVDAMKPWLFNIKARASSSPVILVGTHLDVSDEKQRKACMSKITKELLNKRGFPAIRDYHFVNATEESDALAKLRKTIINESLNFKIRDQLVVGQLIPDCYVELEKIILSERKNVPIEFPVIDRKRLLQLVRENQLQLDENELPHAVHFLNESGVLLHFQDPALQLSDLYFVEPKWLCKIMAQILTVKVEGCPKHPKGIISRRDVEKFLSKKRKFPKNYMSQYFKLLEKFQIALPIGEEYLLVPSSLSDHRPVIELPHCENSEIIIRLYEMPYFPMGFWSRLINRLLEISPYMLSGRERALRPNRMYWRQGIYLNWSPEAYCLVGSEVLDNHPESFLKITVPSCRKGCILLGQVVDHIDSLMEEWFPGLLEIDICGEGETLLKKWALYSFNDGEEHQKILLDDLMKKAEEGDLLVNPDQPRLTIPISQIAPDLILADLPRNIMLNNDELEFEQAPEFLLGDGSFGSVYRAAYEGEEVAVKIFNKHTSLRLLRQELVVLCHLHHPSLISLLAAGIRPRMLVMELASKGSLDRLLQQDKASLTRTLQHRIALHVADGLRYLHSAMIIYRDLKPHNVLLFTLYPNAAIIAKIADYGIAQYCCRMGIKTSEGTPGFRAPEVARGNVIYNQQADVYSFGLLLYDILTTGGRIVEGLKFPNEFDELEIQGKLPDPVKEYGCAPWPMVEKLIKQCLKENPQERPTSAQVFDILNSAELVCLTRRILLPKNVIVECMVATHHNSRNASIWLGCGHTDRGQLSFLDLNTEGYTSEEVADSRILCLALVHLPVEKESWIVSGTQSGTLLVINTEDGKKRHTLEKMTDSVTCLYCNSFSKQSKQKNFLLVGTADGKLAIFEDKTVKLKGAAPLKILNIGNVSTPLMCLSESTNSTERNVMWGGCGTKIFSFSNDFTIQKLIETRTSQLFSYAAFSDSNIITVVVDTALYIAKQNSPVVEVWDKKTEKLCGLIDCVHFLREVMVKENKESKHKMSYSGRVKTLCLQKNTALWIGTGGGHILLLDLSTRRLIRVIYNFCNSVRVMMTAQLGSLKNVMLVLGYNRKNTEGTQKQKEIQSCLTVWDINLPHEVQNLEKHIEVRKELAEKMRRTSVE
T3 sequence (Q5S007 970-2527 G2019S limits assumed): as the sequence (Q5S007 970-2527 limits assumed) above, with G1050S counted along it
T4 sequence (P23458 875-1153 limits assumed): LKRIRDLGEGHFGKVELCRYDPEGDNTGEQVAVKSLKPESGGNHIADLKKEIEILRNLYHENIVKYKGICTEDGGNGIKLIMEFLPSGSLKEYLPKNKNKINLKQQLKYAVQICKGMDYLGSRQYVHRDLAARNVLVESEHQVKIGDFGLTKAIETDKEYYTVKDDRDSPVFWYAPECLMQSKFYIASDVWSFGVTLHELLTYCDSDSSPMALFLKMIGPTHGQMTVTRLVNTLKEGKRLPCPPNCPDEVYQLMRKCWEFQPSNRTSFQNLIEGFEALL

| SMILES | IC50 [1] [nM] | IC50 [2] [nM] | IC50 [3] [nM] | IC50 [4] [nM] |
| --- | --- | --- | --- | --- |
| Cc1cncc2nnc(-c3ccc(Nc4cn(-c5c(Cl)cccc5Cl)nc4C(N)=O)cn3)n12 [compound 436, 1-(2,6-dichlorophenyl)-4-((6-(5-methyl-[1,2,4]triazolo[4,3-a]pyrazin-3-yl)pyridin-3-yl)amino)-1H-pyrazole-3-carboxamide] | 10 to 100 | 100 to 1000 | 100 to 1000 | < 10 |
| Cc1cccnc1-c1ccc(Nc2cn(-c3c(Cl)cccc3Cl)nc2C(N)=O)cn1 [compound 395, 1-(2,6-dichlorophenyl)-4-((3′-methyl-[2,2′-bipyridin]-5-yl)amino)-1H-pyrazole-3-carboxamide] | 100 to 1000 | 100 to 1000 | 100 to 1000 | 100 to 1000 |
| CCc1nc(C(F)(F)F)nn1-c1ccc(Nc2cn(-c3c(F)cccc3Cl)nc2C(N)=O)cc1 [compound 283, 1-(2-chloro-6-fluorophenyl)-4-((4-(5-ethyl-3-(trifluoromethyl)-1H-1,2,4-triazol-1-yl)phenyl)amino)-1H-pyrazole-3-carboxamide] | < 10 | 100 to 1000 | 100 to 1000 | 100 to 1000 |
| NC(=O)c1nn(-c2c(Cl)cccc2Cl)cc1Nc1ccc(N2CCCS2(=O)=O)cc1 [compound 272, 1-(2,6-dichlorophenyl)-4-((4-(1,1-dioxidoisothiazolidin-2-yl)phenyl)amino)-1H-pyrazole-3-carboxamide] | 100 to 1000 | 100 to 1000 | 100 to 1000 | 10 to 100 |
| NC(=O)c1nn(-c2c(Cl)cccc2Cl)cc1Nc1ccc(-c2ccnnc2)cc1 [compound 321, 1-(2,6-dichlorophenyl)-4-((4-(pyridazin-4-yl)phenyl)amino)-1H-pyrazole-3-carboxamide] | 10 to 100 | 100 to 1000 | 100 to 1000 | 10 to 100 |
| N#Cc1cccc(F)c1-n1cc(Nc2ccc(C(=O)N3CC[C@@H](F)C3)cc2)c(C(N)=O)n1 [compound 450, (R)-1-(2-cyano-6-fluorophenyl)-4-((4-(3-fluoropyrrolidine-1-carbonyl)phenyl)amino)-1H-pyrazole-3-carboxamide] | < 10 | 100 to 1000 | 100 to 1000 | 10 to 100 |
| N#CC1CN(C(=O)c2ccc(Nc3cn(-c4c(Cl)cccc4Cl)nc3C(N)=O)cc2)C1 [compound 276, 4-((4-(3-cyanoazetidine-1-carbonyl)phenyl)amino)-1-(2,6-dichlorophenyl)-1H-pyrazole-3-carboxamide] | < 10 | 100 to 1000 | 100 to 1000 | 10 to 100 |
| CC(C)(C)NC(=O)c1ccc(Nc2cn(-c3c(F)cccc3F)nc2C(N)=O)cn1 [compound 23, N-(tert-butyl)-5-((3-carbamoyl-1-(2,6-difluorophenyl)-1H-pyrazol-4-yl)amino)picolinamide] | 100 to 1000 | 100 to 1000 | 100 to 1000 |  |
| CCc1nnnn1-c1ccc(Nc2cn(-c3c(Cl)cccc3Cl)nc2C(N)=O)cc1 [compound 259, 1-(2,6-dichlorophenyl)-4-((4-(5-ethyl-1H-tetrazol-1-yl)phenyl)amino)-1H-pyrazole-3-carboxamide] | < 10 | 100 to 1000 | 100 to 1000 | 10 to 100 |
| COc1ccccc1-c1ccc(Nc2cn(-c3c(Cl)cccc3Cl)nc2C(N)=O)cn1 [compound 344, 1-(2,6-dichlorophenyl)-4-((6-(2-methoxyphenyl)pyridin-3-yl)amino)-1H-pyrazole-3-carboxamide] | 100 to 1000 | 100 to 1000 | 100 to 1000 |  |
| COCCCNC(=O)c1ccc(Nc2cn(-c3c(Cl)cccc3Cl)nc2C(N)=O)cc1 [compound 420, 1-(2,6-dichlorophenyl)-4-((4-((3-methoxypropyl)carbamoyl)phenyl)amino)-1H-pyrazole-3-carboxamide] | 100 to 1000 |  |  | 100 to 1000 |
| Cc1nn(-c2ccc(Nc3cn(-c4c(Cl)cccc4Cl)nc3C(N)=O)cc2)c(C)c1C [compound 224, 1-(2,6-dichlorophenyl)-4-((4-(3,4,5-trimethyl-1H-pyrazol-1-yl)phenyl)amino)-1H-pyrazole-3-carboxamide] | 100 to 1000 |  |  | 100 to 1000 |
| CC(C)(C)NC(=O)c1ccc(Nc2cn(-c3c(Cl)cccc3Cl)nc2C(N)=O)cc1F [compound 28, 4-((4-(tert-butylcarbamoyl)-3-fluorophenyl)amino)-1-(2,6-dichlorophenyl)-1H-pyrazole-3-carboxamide] | 10 to 100 |  |  | 100 to 1000 |
| NC(=O)c1nn(-c2c(Cl)cccc2Cl)cc1Nc1ccc(-n2nc(C(F)(F)F)nc2CO)cc1 [compound 371, 1-(2,6-dichlorophenyl)-4-((4-(5-(hydroxymethyl)-3-(trifluoromethyl)-1H-1,2,4-triazol-1-yl)phenyl)amino)-1H-pyrazole-3-carboxamide] | < 10 |  |  | 100 to 1000 |
| Cc1ccn(-c2ccc(Nc3cn(-c4c(Cl)cccc4Cl)nc3C(N)=O)cc2)n1 [compound 75, 1-(2,6-dichlorophenyl)-4-((4-(3-methyl-1H-pyrazol-1-yl)phenyl)amino)-1H-pyrazole-3-carboxamide] | 100 to 1000 |  |  | 100 to 1000 |
| CN(C)C1CCN(C(=O)c2ccc(Nc3cn(-c4c(Cl)cccc4Cl)nc3C(N)=O)nc2)CC1 [compound 442, 1-(2,6-dichlorophenyl)-4-((5-(4-(dimethylamino)piperidine-1-carbonyl)pyridin-2-yl)amino)-1H-pyrazole-3-carboxamide] | 100 to 1000 |  |  | 100 to 1000 |
| NC(=O)c1nn(-c2c(Cl)cccc2Cl)cc1Nc1cnn(CC(=O)N2CCS(=O)(=O)CC2)c1 [compound 469, 1-(2,6-dichlorophenyl)-4-((1-(2-(1,1-dioxidothiomorpholino)-2-oxoethyl)-1H-pyrazol-4-yl)amino)-1H-pyrazole-3-carboxamide] | 10 to 100 |  |  | 10 to 100 |
| CCc1ncnn1-c1ccc(Nc2cn(-c3c(Cl)cccc3Cl)nc2C(N)=O)cc1 [compound 291, 1-(2,6-dichlorophenyl)-4-((4-(5-ethyl-1H-1,2,4-triazol-1-yl)phenyl)amino)-1H-pyrazole-3-carboxamide] | 10 to 100 |  |  | < 10 |
| CN1CCN(C(=O)c2ccc(Nc3cn(-c4c(Cl)cccc4Cl)nc3C(N)=O)nc2)CC1 [compound 370, 1-(2,6-dichlorophenyl)-4-((5-(4-methylpiperazine-1-carbonyl)pyridin-2-yl)amino)-1H-pyrazole-3-carboxamide] | 10 to 100 |  |  | 100 to 1000 |
| NC(=O)c1nn(-c2c(Cl)cccc2Cl)cc1Nc1ccc(C(=O)NC2CCCNC2)cc1 (stereo not drawn) [compound 39, 1-(2,6-dichlorophenyl)-4-((4-(piperidin-3-ylcarbamoyl)phenyl)amino)-1H-pyrazole-3-carboxamide] | 100 to 1000 |  |  | 10 to 100 |
| Cc1ccnc(Nc2cn(-c3c(F)cccc3F)nc2C(N)=O)c1 [compound 10, 1-(2,6-difluorophenyl)-4-((4-methylpyridin-2-yl)amino)-1H-pyrazole-3-carboxamide] | 100 to 1000 | 100 to 1000 | 100 to 1000 |  |
| NC(=O)c1nn(-c2c(Cl)cccc2Cl)nc1Nc1ccc(-n2cc3c(n2)CCOC3)cc1 [compound 111, 2-(2,6-Dichloro-phenyl)-5-[4-(6,7-dihydro-4H-pyrano[4,3-c]pyrazol-2-yl)-phenylamino]-2H-[1,2,3]triazole-4-carboxylic acid amide] | 100 to 1000 |  |  | 100 to 1000 |

— US20230373985A1 (Origenis Gmbh, priority 2020, published 2023)
